The text below walks through data of US20110020279A1 (priority 2010, published 2011).

One data set deals with activated microglia. The following applies: cited from earlier work.
In data set [1] the test system is rabies virus. The following applies: cited from earlier work.
Data set [2] relates to rabies virus. The following applies: cited from earlier work. This is another data set of the same source.
The test system of data set [3] is rabies virus. The following applies: rat, in vivo; cited from earlier work.
The conditions of data set [4]: in vivo; cited from earlier work.
For data set [5] the following is noted: mouse, in vivo; cited from earlier work.
The conditions of data set [6]: human, in vivo.
Another data set concerns herpes simplex virus. The following applies: cited from earlier work.
Data set [7] deals with vesicular stomatitis virus. The conditions noted are these: cited from earlier work.
In the next data set the test system is poliovirus type 1. The following applies: cited from earlier work.
Another data set deals with HIV virus. The conditions noted are these: cited from earlier work.
Data set [8] concerns rabies virus. The following applies: human, in vivo, cited from earlier work.
The subject of data set [9] is rabies virus. The conditions noted are these: cited from earlier work. The source holds these as a separate data set.
The conditions of data set [10]: in vivo, iv; cited from earlier work.
Data set [11] relates to rabies virus. The following applies: in vivo; cited from earlier work.
The subject of data set [12] is LPS-activated macrophages. The following applies: cited from earlier work.
For data set [13] the following is noted: in vivo; cited from earlier work. The source holds these as a separate data set.
The conditions of data set [14]: in vivo; cited from earlier work. The source holds these as a separate data set.
For data set [15] the following is noted: in vivo; cited from earlier work. This is another data set of the same source.
Details of data set [16]: species or system humans. The following applies: human, in vivo.
For data set [17] the following is noted: in vivo.
Data set [18] has as its system MCF-7 human breast cancer cells. The following applies: cited from earlier work.

“Also recorded” adds a separate entry of the source.

As for `C[C@]12CC[C@@H]3c4ccc(O)cc4CC[C@H]3[C@@H]1C[C@@H](O)[C@@H]2O` [Estriol], in the data set with activated microglia, the “NO and TNF-alpha production by activated microglia” value (“NO and TNF-alpha production” for short) is reported as “inhibits”.
Consider `C[C@]12N[C@H](Cc3ccccc31)c1ccccc12` [MK-801], for which the “rabies virus infection in primary neuron cultures” value in the data set with rabies virus [1] is “inhibited”.
Regarding `Oc1ccc(/C=C/c2cc(O)cc(O)c2)cc1` [Resveratol], the “NO and TNF-alpha production” value in the data set on activated microglia is on record as “inhibits”.
For `COc1cc2c(c(OC)c1OC)-c1ccc(OC)c(=O)cc1[C@@H](NC(C)=O)CC2` [colchicine], in the data set with rabies virus [2], the “rabies virus transport in neurites” value was “blocked”. The “day post-infection until which no fluorescent foci could be detected” value in the data set with rabies virus [3] is 3 days.
In the case of `C[C@]12CCC(=O)C=C1CC[C@@H]1[C@@H]2[C@@H](O)C[C@@]2(C)[C@H]1CC[C@]2(O)C(=O)CO` [cortisol], the “release of TNF-alpha from LPS-treated microglial cells” value in the data set with activated microglia was “inhibits”.
For `COc1cc(/C=C/C(=O)CC(=O)/C=C/c2ccc(O)c(OC)c2)ccc1O` [curcumin], in the data set with activated microglia, the “mRNA and protein levels of inducible nitric oxide synthase (iNOS)” value is “suppresses”.
In the case of `S` [hydrogen sulfide], in data set [4], the “borderline concentration for eye irritation” value is recorded as 10-20 ppm; the “concentration at which olfactory nerve is paralyzed after a few inhalations” value is recorded as 100-150 ppm; the “concentration causing immediate collapse with loss of breathing” value is listed as “over 1000 ppm”; the “concentration causing strong CNS stimulation, rapid breathing, loss of breathing” value was 530-1000 ppm. In data set [4], the “concentration leading to eye damage” value is listed as 50-100 ppm, the “concentration leading to pulmonary edema with possibility of death” value is reported as 320-530 ppm, the “concentration with exposure limit of 8 hours per day” value is “Less than 10 ppm” and the “lethal concentration for 50% of humans (LC50)” value is on record as 800 ppm. In data set [5], the blood pressure result is recorded as “did not significantly decrease” and the health consequences afterwards result was “no negative health consequences”.
For the molecule `CNC1(c2ccccc2Cl)CCCCC1=O` (stereo not shown) [ketamine], in the data set with rabies virus [1], the “rabies virus infection in primary neuron cultures” value is “inhibited”; the “reduction in the levels of rabies virus mRNAs relative to untreated neurons” value is reported as 5- to 11 fold; the “viral nucleoprotein and glycoprotein syntheses” value is reported as “inhibited”. For the same molecule, in data set [6], the initial cardiovascular effects result was “tachycardia and elevated blood pressure”. Besides, in the data set on herpes simplex virus, the “replication of herpes simplex virus” value is listed as “doesn't affect replication”. In addition, in data set [7], the “replication of vesicular stomatitis virus” value was “doesn't affect replication”. The “replication of poliovirus type 1” value in the data set on poliovirus type 1 is recorded as “doesn't affect replication”. The “replication of HIV virus” value in the data set on HIV virus is “doesn't affect replication”. In addition, the “outcome of rabies therapy with ketamine and induced coma” value in the data set on rabies virus [8] is recorded as “failed to save the patient's life”. Further, the “ketamine therapy of rabies in experimental studies” value in the data set with rabies virus [9] is “poor and disappointing”. Further, the treatment of hiccup result in [10] was “effectively”. The “rabies virus infection/spread in rat brain” value in the data set with rabies virus [11] is recorded as “restricted viral spread; also recorded: reduced”.
For the molecule `CC(=O)[C@H]1CC[C@H]2[C@@H]3CCC4=CC(=O)CC[C@]4(C)[C@H]3CC[C@]12C` [progesterone], in the data set on activated microglia, the “NO and TNF-alpha production” value was “inhibits”.
For `CC(C)c1cccc(C(C)C)c1O` [propofol], in data set [12], the “LPS-induced NO biosynthesis” value was “significantly inhibited”; the “levels of LPS-enhanced TNF-alpha, IL-1 beta, and IL-6 proteins” value is listed as “significantly reduced”. The “time to waking when not administered continuously” value in data set [13] is 5 to 10 min.
Regarding `NC(=O)c1ncn([C@@H]2O[C@H](CO)[C@@H](O)[C@H]2O)n1` [ribavirin], in the data set with rabies virus [8] (iv), the “outcome of antiviral therapy, intravenous” value is “unsuccessful”; the “outcome of therapy, combined intravenous and intrathecal administration” value is recorded as “unsuccessful”.
`CC[C@]1(O)C[C@@H]2CN(CCc3c([nH]c4ccccc34)[C@@](C(=O)OC)(c3cc4c(cc3OC)N(C)[C@H]3[C@@](O)(C(=O)OC)[C@H](OC(C)=O)[C@]5(CC)C=CCN6CC[C@]43[C@@H]65)C2)C1` [vinblastine]: in the data set on rabies virus [2], the “rabies virus transport in neurites” value is “blocked”.
Take NPH (isophane) insulin: in data set [14], the “Effective duration of action” value is 10 to 16 h, the Maximum duration is 14 to 18 h, the “Onset of Action” value was 2 to 4 h and the “Peak Action” value was 6 to 10 h.
As for biopterin, the “post recovery paresis symptoms” value in data set [15] is on record as “relieved”.
On to cytochalasin, for which the “rabies virus transport in neurites” value with rabies virus [2] was “blocked”.
With insulin, the “memory, attention, functioning, mood” value in data set [16] was “improves memory, attention, and functioning”. For the same molecule, the hypoglycemic effects result in data set [17] is on record as “did not develop the hypoglycemic effects”. In addition, the “increase of the cytotoxic effect of methotrexate by insulin” value in data set [18] was “up to 10,000 fold”.
Take insulin aspart: in data set [14], the “Effective duration of action” value is 3 to 4 h, the Maximum duration is 4 to 6 h, the “Onset of Action” value is given as “¼-½” and the “Peak Action” value is “½-1¼”.
In the case of insulin detemir, in data set [14], the “Effective duration of action” value is 14 h, the Maximum duration is about 20 h, the “Onset of Action” value is 3 to 4 h and the “Peak Action” value is 6 to 8 h.
Consider insulin glargine, for which, in data set [14], the “Effective duration of action” value was 18 to 20 h, the Maximum duration is 20 to 24 h, the “Onset of Action” value was 3 to 4 h and the “Peak Action” value was 8 to 16 h.
Consider insulin glulisine, for which, in data set [14], the “Effective duration of action” value was 3 to 4 h, the Maximum duration was 4 to 6 h, the “Onset of Action” value is “¼-½” and the “Peak Action” value is listed as “½-1¼”.
Regarding insulin lispro [IInsulin lispro], in [14], the “Effective duration of action” value is 3 to 4 h, the Maximum duration was 4 to 6 h, the “Onset of Action” value is “¼-½” and the “Peak Action” value is recorded as “½-1¼”.
As to interferon-Alfa, the “outcome of therapy, combined intravenous and intrathecal administration” value in the data set with rabies virus [8] (iv) was “unsuccessful”.
Turning to regular (soluble) insulin, in [14], the “Effective duration of action” value was 3 to 6 h, the Maximum duration is 6 to 8 h, the “Onset of Action” value is reported as “½-1” and the “Peak Action” value was 2 to 3 h.
